Each block holds one compound with its values, some of them ahead of it.
What was measured:
TNF-α production [1] = assay: Measurement of inhibiting activity of TNF-α production in LPS-stimulated THP-1 cells, ELISA (Reference Example C 2); assay type: cell-based; conditions: Homo sapiens, LPS 5 μg/mL, 4 hours, read-out: IC50 (concentration necessary for inhibiting TNF-α production by 50%)
Protocol: (§1) Measurement of Inhibiting Activity of TNF-α Production
After THP-1 cells which had been cultured on PRMI 1640 medium (manufactured by Life Technologies, Inc.) containing 1% inactivated bovine fetal serum (manufactured by Life Technologies, Inc., U.S.A.) and 10 mM HEPES (pH 7.5) seeded on a 96 well-plate to 1×10^5 cells/well, 1 μL test compound dissolved in DMSO was added. After incubation at 37° C. for 1 hour in a CO2 incubator, LPS (Wako Pure Chemicals) was added to the final concentration 5 μg/mL. After cultured at 37° C. for 4 hours in a CO2 incubator, the supernatant was obtained by centrifugation. The concentration of TNF-α in the supernatant was measured by ELISA (R&D Systems, Quantikine Kit). The concentration (IC50 value) of the test compound necessary for inhibiting TNF-α production by 50% was calculated using PRIMS 2.01 (Graphpad Software).

[2] = Test using rat yeast-induced pain model animal (pain threshold, pressure device), Example 1; assay type: in vivo; conditions: oral, pain threshold 2 hours after administration
Protocol: Male Sprague-Dawley rats (4 week-old, Clear Japan) were used. A 20% yeast physiological saline solution (0.1 ml) was subcutaneously injected into right hind pedal sole to induce inflammation in the right hind pedal sole. One hour later, 0.5% aqueous methyl cellulose or Reference Example D compound 16 1 suspended in 0.5% aqueous methyl cellulose was orally administered (0.5 ml/100 g body weight). After 2 hours from sample administration, pain threshold value was measured based on false escape reaction using a pressure device. A group contained 6 rats.

[3] = test system: osteoclast formation in mouse bone marrow cells; assay: Inhibitory action of osteoclast formation (TRAP positive multinucleated cells, bone marrow cell culture), Example 2; assay type: cell-based; conditions: for Osteoclast count (/well): 6 days, TRAP positive multinucleated cells, average ± standard deviation (N = 4-5)
Protocol: Bone marrow cells were collected from the tibia of 8-week-old male ddY mouse and suspended in αMEM medium containing 10% FBS and sown in a 24 well plate at a density of 10^6 cells/0.5 ml/well. After static culture overnight, the medium was changed to the above-mentioned medium containing 10^−8 M 1α, 25 (OH)2D3 or Reference Example D compound 16 1 at 0.01, 0.1, 1 or 10 μM, respectively and further cultured for 6 days. After the completion of the culture, the cells were fixed and subjected to staining of tartrateresistant acid phosphatase (TRAP), which is a differentiation index of osteoclast, and TRAP positive multinucleated cells with three or more nuclei were counted as osteoclasts with a microscope.

human p38 MAP kinase = target: T1, human p38 MAP kinase (Homo sapiens, UniProt Q16539); assay: Measurement of the p38 MAP kinase inhibitory activity, 32P uptake into Myelin Basic Protein (Reference Example F 2); assay type: biochemical; conditions: active form p38 MAP kinase, 30° C. 60 minutes, read-out: IC50 (p38 MAP kinase inhibitory activity, uptake of 32P into acid insoluble fraction)
T1 construct: made in house; host or cells: Sf-21 insect cells, baculovirus (BAC-HP38 co-infected with BAC-caMKK3)
Protocol: The genetic manipulations described below were according to the methods described in the book (Maniatis et al., Molecular Cloning, Cold Spring Harbor Laboratory, 1989) or a method described in the protocol attached to the reagent.
(1) Cloning of Human p38 MAP Kinase Gene and Preparation of Recombinant Baculovirus
Cloning of human p38 MAP kinase gene was performed by a PCR method using a primer set P38 U: 5′-[…]-3′ [SEQ ID NO:9] and PAG-L: 5′-[…]-3′ [SEQ ID NO:10] made by reference to the base sequence of p38 MAP kinase gene reported by Han et al. (Science 265 (5173), 808 811 (1994)) and employing kidney cDNA (Toyobo, QUICK-Clone cDNA) as a template.
A PCR reaction was performed by a Hot Start method using AmpliWax PCR Gem 100 (Takara Shuzo). As the lower mixed solution, 2 μL 10×LA PCR Buffer, 3 μL 2.5 mM dNTP solution, each 2.5 μL of 12.5 μM primer solution, and 10 μL sterile distilled water were mixed. As the upper mixed solution, 1 μL human cardiac cDNA (1 ng/mL) as a template, 3 μL 10×LA PCR Buffer, 1 μL 2.5 mM dNTP solution, 0.5 μL TaKaRa LA Taq DNA polymerase (Takara Shuzo), and 24.5 μL sterile distilled water were mixed. One AmpliWax PCR Gem 100 (Takara Shuzo) was added to the prepared lower mixed solution to treat at 70° C. for 5 minutes and for 5 minutes in an ice and, thereafter, the upper mixed solution was added to prepare a reaction solution for PCR. A tube containing the reaction solution was set at a thermal cycler (Perkin Elmer), which was treated at 95° C. for 2 minutes. Further, after repeating 35 times a cycle of 15 seconds at 95° C. and 2 minutes at 68° C., treatment was performed at 72° C. for 8 minutes. The resulting PCR product was subjected to agarose gel (1%) electrophoresis, 1.1 kb DNA fragment containing p38 MAP kinase gene was recovered from the gel and, thereafter, which was inserted into pT7Blue-T vector (Takara Shuzo) to make the plasmid pHP38.
The 4.8 kb XhoI-KpnI fragment of the plasmid pFASTBAC1 (CIBCOBRL) and the 1.1 kb XhoI-Kpn fragment of the above plasmid pHP38 were ligated to make the plasmid pFBHP38.
The plasmid pFBHP38 and BAC-TO-BAC Baculovirus Expression System (GIBCOBRL) were used to prepare the recombinant Baculovirus virusstock BAC-HP38.
(2) Cloning of Human MKK3 Gene and Preparation of Recombinant Baculovirus
Cloning of human MKK3 gene was performed by a PCR method using a primer set MKK-U: 5′-[…]-3′ [SEQ ID NO:11] and MKK-L: 5′-[…]-3′ [SEQ ID NO:12] made by reference to the base sequence of MKK3 gene reported by Derijard, B. et al., Science 267 (5198), 682 685 (1995) and using kidney cDNA (Toyobo, QUICK-Clone cDNA).
A PCR reaction was performed by a Hot Start method using AmpliWax PCR Gem 100 (Takara Shuzo). As the lower mixed solution, 2 μL 10×LA PCR Buffer, 3 μL 2.5 mM dNTP solution, each 2.5 μL of 12.5 μM primer solution, and 10 μL sterile distilled water were mixed. As the upper mixed solution, 1 μL human kidney cDNA (1 ng/mL), 3 μL 10×LA PCR Buffer, 1 μL 2.5 mM dNTP solution, 0.5 μL TaKaRa LA taq DNA polymerase (Takara Shuzo) and 24.5 μL sterile distilled water were mixed. One AmpliWax PCR Gem 100 (Takara Shuzo) was added to the prepared lower mixed solution to treat at 70° C. for 5 minutes and for 5 minutes in ice and, thereafter, the upper mixed solution was added to prepare a reaction solution for PCR. A tube containing the reaction solution was set at a thermal cycler (Perkin Elmer), which was treated at 95° C. for 2 minutes. Further, after repeating 35 times a cycle of 15 seconds at 95° C. and 2 minutes at 68° C., treatment was performed at 72° C. for 8 minutes. The resulting PCR product was subjected to agarose gel (1%) electrophoresis, 1.0 kb DNA fragment containing MKK3 gene was recovered from the gel and, thereafter, which was inserted into pT7Blue-T vector (Takara Shuzo) to make the plasmid pHMKK3. […]

TNF-α production [4] = assay: Measurement of inhibiting activity of TNF-α production in LPS-stimulated THP-1 cells, ELISA (Reference Example F 3); assay type: cell-based; conditions: Homo sapiens, LPS 5 μg/mL, 4 hours, ELISA (R&D System)
Protocol: as §1
After THP-1 cells which had been cultured in PRMI 1640 medium (manufactured by Life Technologies, Inc.) containing 1% non-activated bovine fetal serum (manufactured by Life Technologies, Inc., U.S.A.) and 10 mM HEPES (pH 7.5) seeded on a 96 well plate to 1×10^5 cells/well, 1 μL test compound dissolved in DMSO was added to there. After incubation at 37° C. for 1 hour in a CO2 incubator, LPS (Wako Pure Chemicals) was added to the final concentration 5 μg/mL. After cultured at 37° C. for 4 hours in a CO2 incubator, the supernatant was obtained by centrifugation. The concentration of TNF-α in the supernatant was measured with ELISA (R&D System, Quantikine Kit). The concentration (IC50 value) necessary for inhibiting TNF-α production by 50% was calculated by PRIMS 2.01 (Graphpad Software).

T1 sequence (Q16539 whole entry): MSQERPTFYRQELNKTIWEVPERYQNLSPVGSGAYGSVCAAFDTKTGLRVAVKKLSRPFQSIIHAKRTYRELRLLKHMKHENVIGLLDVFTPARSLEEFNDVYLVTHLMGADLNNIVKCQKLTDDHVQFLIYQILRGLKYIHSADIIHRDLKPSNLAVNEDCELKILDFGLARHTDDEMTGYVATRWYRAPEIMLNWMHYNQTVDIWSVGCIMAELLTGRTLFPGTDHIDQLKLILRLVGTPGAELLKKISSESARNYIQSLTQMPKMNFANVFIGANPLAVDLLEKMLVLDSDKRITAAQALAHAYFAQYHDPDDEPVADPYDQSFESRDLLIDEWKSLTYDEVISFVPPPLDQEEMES

IC50 (TNF-α production [1]): 140 nM
melting point: 177 to 178 °C
SMILES: CNc1nc(-c2ccc(OC)cc2)c(-c2ccncc2)s1 [13-16, N-methyl [4-(4-methoxyphenyl)-5-(4-pyridyl)-1,3-thiazol-2-yl]amine]

IC50 ([3]; 144 h, mouse bone marrow cells, 1α,25(OH)2D3, 6 days culture, read-out: IC50 value against formation of osteoclast): 300 nM
SMILES: CCc1nc(-c2cccc(C)c2)c(-c2ccnc(NC(=O)c3ccccc3)c2)s1 [D 16-1, N-[4-[2-ethyl-4-(3-methylphenyl)-1,3-thiazol-5-yl]-2-pyridyl]benzamide]
antinociceptive effect [2]: dose-dependent antinociceptive effect
minimum effective dose (antinociceptive effect) [2]: 10 mg/kg
number of osteoclasts ([3]; 0.01, 0.1, 1 or 10 μM): decreased in a dose-dependent manner
formation of osteoclast ([3]; at 10 μM): barely observed
Osteoclast count (/well) ([3]; concentration 0.01 μM, mouse bone marrow cells): 183.8 ± 2.9 /well
Osteoclast count (/well) ([3]; concentration 0.1 μM, mouse bone marrow cells): 140.8 ± 7.6 /well
Osteoclast count (/well) ([3]; concentration 1 μM, mouse bone marrow cells): 72.4 ± 4.4 /well
Osteoclast count (/well) ([3]; concentration 10 μM, mouse bone marrow cells): 0.6 ± 0.4 /well
concentration from which the action on osteoclast number was found significantly ([3]; mouse bone marrow cells, 0.01-10 μM tested): 0.1 µM

IC50 (TNF-α production [1]): 180 nM
melting point: 224 to 225 °C
SMILES: CNc1nc(-c2ccc(Cl)cc2)c(-c2ccncc2)s1 [13-70, N-methyl [4-(4-chlorophenyl)-5-(4-pyridyl)-1,3-thiazol-2-yl]amine]

IC50 (human p38 MAP kinase): 23 nM
IC50 (TNF-α production [4]): 140 nM
SMILES: Cc1cc(C)cc(-c2nc(N)sc2-c2ccnc(NCc3ccccc3)c2)c1 [D 6, N-[4-[2-amino-4-(3,5-dimethylphenyl)-1,3-thiazol-5-yl]-2-pyridyl]benzylamine]

From patent US20050080113A1, “Medicinal compositions” (priority 2001, published 2005)
